These results are taken from article PMC4627230, “Identification of TAX2 peptide as a new unpredicted anti-cancer agent” (Oncotarget, 2015).

Assay [1] relates to MIA PaCa-2 xenograft in BALB/C nu/nu mice. Kind of assay: MIA PaCa-2 human pancreatic carcinoma xenograft growth. In kind it is in vivo, human tumor xenograft in mouse. As to the method: For the subcutaneous melanoma tumor model, suspensions of B16F1 cells (2.5 × 10^5 cells in 100 μL RPMI-1640 medium) were subcutaneously injected into the left flank of different randomized series of syngeneic C57BL/6 mice (n = 8–10 per group), as previously described. Intraperitoneal administrations of peptide (10 mg/kg mouse weight) or controls (physiological serum 0.9% (w/v) NaCl or a scrambled peptide) were performed at days 3, 5 and 7. In human pancreatic carcinoma xenograft experiments, 3 × 10^6 MIA PaCa-2 cells/mouse were implanted subcutaneously into the left flank of BALB/C athymic nude mice, then TAX2 intraperitoneal treatments (10 mg/kg mouse weight) were performed 3 times a week during 4 weeks starting at day 10 after tumor cells inoculation. Tumor volume was determined according to v = 0.5 A × B^2, where A denotes the largest dimension of the tumor and B represents the smallest dimension. At days indicated, mice were sacrificed and tumors were surgically extracted and fixed in 4% paraformaldehyde for further morphologic studies and for magnetic resonance imaging, or frozen for immunohistochemistry. Mice were also weighed every 2–3 days and daily checked for any modification in their behavior. Loss of 15% body weight was an indication for euthanasia as well as severe tumor necrosis, as it was sometimes associated with skin ulceration that would result in loss of body fluid and/or infection.
In general terms: In xenograft studies the graft and the host belong to different species.

The subject of assay [2] is lung metastasis of invasive B16F10 melanoma cells. Description: Experimental lung metastasis. The conditions noted are these: data not shown. In kind it is in vivo.
For another assay, the system named is HUVECs. Kind of assay: Wound-healing migration assay. As to conditions: 100 μM, 9 h, after mitomycin C, mean of 3 in quadruplicate. In kind it is cell-based, human. On the procedure:
Figure 2 TAX2 peptide impairs endothelial cell migration and inhibits angiogenesis in vitro and ex vivo A. HUVECs were treated with TAX2 (100 μM) or scrambled peptide (Ctrl, 100 μM). CD47 was immunoprecipitated from total protein lysates using anti-CD47 (clone B6H12) and non-specific IgGs were used as a negative control. Immunocomplexes were then submitted to SDS-PAGE and immunoblotted (IB) using specific TSP-1 and CD47 antibodies. Histogram represents the quantification of co-immunoprecipitated TSP-1 relative to immunoprecipitated CD47. Results are expressed as percentage compared to control (n = 3 separate experiments, t test). B. HUVECs (1 × 10^5 per well) were grown at confluence and then cell proliferation was inhibited by incubating with 10 μg/mL mitomycin C for 2 h. […] Graph represents the quantification of the wounded area. […] Hoechst-stained migrating cells attached on outside surface of the top chamber were photographed (20× objective) and counted. Results are expressed as percentage of migrated cells as compared to control. […] After 8 h incubation, HUVEC tube-like formation was observed on an inverted microscope (40×) and quantification of network total length was done using ImageJ software. […] Data are expressed as the mean ± SE from at least 3 independent experiments, each performed in triplicate. […] The transcriptional level of TSP-1 was assessed by RT-PCR and normalized to β-actin. […]

The test system of another assay is VEGFR2. Kind of assay: VEGF-induced VEGFR2 phosphorylation. Format: cell-based, human. The conditions noted are these: HUVECs, 100 μM for 12 h, then 30 ng/mL VEGF 5 min; n = 3.

“CEVSQLLKGDAC (disulfide) [TAX2, CD47-derived cyclic disulfide dodecapeptide …]”: in assay [1] (10 mg/kg i.p. 3 times a week for 4 weeks from day 10), the xenograft growth delay result is recorded as “strong delay”. Besides, the “decrease of tumor volume at day 38” value in assay [1] (10 mg/kg i.p. 3 times a week for 4 weeks from day 10, n = 9, p < 0.05) is given as 2 fold. Further, the “tumor volume at day 24, xenograft” value in assay [1] (10 mg/kg i.p. 3 times a week from day 10, n = 15) is reported as “no differences in measured tumor volume were observed”. Further, in assay [1] (MIA PaCa-2 xenograft, bevacizumab data from ref [56]), the “inhibition rate compared to 5 mg/kg bevacizumab twice weekly i.p.” value was “higher inhibition rates”. The lung metastasis formation entry in assay [2] is “did not increase metastasis formation”. Besides, the “endothelial cell migration rate (wound healing)” value with HUVECs is given as “reduced migration rate”. Further, the “VEGF-induced VEGFR2 phosphorylation” value in the assay with VEGFR2 is listed as “partially reverses VEGF-induced VEGFR2 phosphorylation”.
